Laboratory results as given in patent US8227406B2, “Antimicrobial peptides” (Dermagen AB, priority 2006, dated 2012).
“And” between values parts separate entries of the source, which are not always exact repeats. Identical values can stand only once. Where no end group is shown, it is not given here.

Key:
[1] = test system: Eschericia coli ATCC25922; assay: Radial diffusion assay (RDA), E. coli; type: cell-based, Escherichia coli; set-up: Data (RDA antimicrobial activity, single replicates) / Mean (RDA antimicrobial activity): unit not given here; details: for Data (RDA antimicrobial activity, single replicates) / Mean (RDA antimicrobial activity): E. coli; for Data (RDA antimicrobial activity, single replicates): individual replicate; for Mean (RDA antimicrobial activity): mean of 3; for E.coli ATCC 25922 Mean, Ingrowth* counted / E.coli ATCC 25922 Mean, Ingrowth not counted: Table 1a, RDA clear zone
Description: (§1) Peptides. Peptides were from Sigma-Genosys, generated by a peptide synthesis platform (PEPscreen®, Custom Peptide Libraries, SigmaGenosys). Yield was ˜1-6 mg, and peptide length 20 amino acids. MALDI-ToF Mass Spectrometry was perfomed on these peptides. Average Crude Purity of 20mers was ˜60%. Peptides were supplied lyophilized and in a 96-well tube rack. Prior to biological testing the PEPscreen peptides were diluted in dH2O (5 mM stock), and stored at −20 C. This stock solution was used for the subsequent experiments.
(§2) Eschericia coli ATCC25922, Staphylococcus aureus ATCC29213, and the fungal isolate Candida albicans ATCC90028 were obtained from the Department of Bacteriology, Lund University Hospital.
(§3) Radial diffusion assays (RDA) were performed essentially as described earlier (Lehrer, R. I., Rosenman, M., Harwig, S. S., Jackson, R. & Eisenhauer, P. (1991) Ultrasensitive assays for endogenous antimicrobial polypeptides, J Immunol Methods. 137, 167-73). Briefly, bacteria (E. coli, S. aureus) or fungi (C. albicans) were grown to midlogarithmic phase in 10 ml of full-strength (3% w/v) trypticase soy broth (TSB) (Becton-Dickinson, Cockeysville, Md.). The microorganisms were washed once with 10 mM Tris, pH 7.4. 4×10^6 bacterial cfu or 1×10^5 fungal cfu was added to 5 ml of the underlay agarose gel, consisting of 0.03% (w/v) TSB, 1% (w/v) low-electroendoosmosistype (Low-EEO) agarose (Sigma, St Louise Mo.) and a final concentration of 0.02% (v/v) Tween 20 (Sigma). The underlay was poured into a Ø 85 mm petri dish. After agarose solidified, 4 mm-diameter wells were punched and 6 μl of test sample was added to each well. Plates were incubated at 37° C. for 3 hours to allow diffusion of the peptides. The underlay gel was then covered with 5 ml of molten overlay (6% TSB and 1% Low-EEO agarose in dH2O). Antimicrobial activity of a peptide is visualized as a clear zone around each well after 18-24 hours of incubation at 37° C. for bacteria and 28° C. for Candida albicans. Other examples of peptides that were screened and found to show an increased effect against the above mentioned microorgansism are listed below. Some of the results are found in table 1c showing the effects against C. albicans, table 1d E. coli and table 1e S. aureus.

[2] = test system: Staphylococcus aureus ATCC29213; assay: Radial diffusion assay (RDA), S. aureus; type: cell-based; set-up: Data (RDA antimicrobial activity, single replicates) / Mean (RDA antimicrobial activity): unit not given here; details: for Data (RDA antimicrobial activity, single replicates) / Mean (RDA antimicrobial activity): S. aureus; for Data (RDA antimicrobial activity, single replicates): individual replicate; for Mean (RDA antimicrobial activity): mean of 3; for S. aureus ATCC 29213 Mean: Table 1a, RDA clear zone
Description: as §1, §2, §3

[3] = test system: Candida albicans ATCC90028; assay: Radial diffusion assay (RDA), C. albicans; type: cell-based; set-up: unit not given here; details: for RDA Mean, C. albicans / RDA Data (single replicates), C. albicans: Table 1c; for RDA Data (single replicates), C. albicans: individual values; for Candida albicans ATCC 90028 Mean: Table 1a, RDA clear zone
Description: as §1, §2, §3

erythrocytes = assay: Hemolysis assay; type: cell-based; details: % of TritonX-100 induced hemolysis; erythrocytes 1 h at 37° C.; peptides (3-60 μM)
Description: EDTA-blood was centrifuged at 800 g for 10 min, whereafter plasma and buffy coat were removed. The erythrocytes were washed three times and resuspended in 5% PBS, pH 7.4. The cells were then incubated with end-over-end rotation for 1 h at 37° C. in the presence of peptides (3-60 μM). 2% Triton X-100 (Sigma-Aldrich) served as positive control. The samples were then centrifuged at 800 g for 10 min. The absorbance of hemoglobin release was measured at λ 540 nm and is in the plot expressed as % of TritonX-100 induced hemolysis (Table 1a).

[4] = Table 1b, 10 mM Tris Hcl (pH 7.4)

For “PKR-21: growth factor derived peptide, untagged parent of PKR21WWW; sequence not printed (PKRKKKGGKNGKNRRNRKKKN; listed as Homo sapiens)”, the “Data (RDA antimicrobial activity, single replicates)” value ([1]; peptide 0.1 μM) was 0, the “Mean (RDA antimicrobial activity)” value ([1]; peptide 0.1 μM) was 0.00 and the “Data (RDA antimicrobial activity, single replicates)” value ([1]; peptide 0.5 μM) was 0.3 and 0.7 and 0.58. For the same compound, the “Mean (RDA antimicrobial activity)” value ([1]; peptide 0.5 μM) was 0.53, the “Data (RDA antimicrobial activity, single replicates)” value ([1]; peptide 1 μM) was 0.56 and 0.97 and 1.02 and the “Mean (RDA antimicrobial activity)” value ([1]; peptide 1 μM) was 0.85. The “Data (RDA antimicrobial activity, single replicates)” value ([1]; peptide 5 μM) was 0.63 and 1.65 and 0.55, the “Mean (RDA antimicrobial activity)” value ([1]; peptide 5 μM) was 0.94 and the “Data (RDA antimicrobial activity, single replicates)” value ([1]; peptide 10 μM) was 0.94 and 1.08 and 1.02. The “Mean (RDA antimicrobial activity)” value ([1]; peptide 10 μM) was 1.01, the “Data (RDA antimicrobial activity, single replicates)” value ([1]; peptide 50 μM) was 1.16 and 1.52 and 1.01 and the “Mean (RDA antimicrobial activity)” value ([1]; peptide 50 μM) was 1.23. The “Data (RDA antimicrobial activity, single replicates)” value ([1]; peptide 100 μM) was 1.34 and 1.37 and 1.39, the “Mean (RDA antimicrobial activity)” value ([1]; peptide 100 μM) was 1.37 and the “Data (RDA antimicrobial activity, single replicates)” value ([2]; peptide 0.1 μM) was 0. The “Mean (RDA antimicrobial activity)” value ([2]; peptide 0.1 μM) was 0.00, the “Data (RDA antimicrobial activity, single replicates)” value ([2]; peptide 0.5 μM) was 0 and the “Mean (RDA antimicrobial activity)” value ([2]; peptide 0.5 μM) was 0.00. The “Data (RDA antimicrobial activity, single replicates)” value ([2]; peptide 1 μM) was 0, the “Mean (RDA antimicrobial activity)” value ([2]; peptide 1 μM) was 0.00 and the “Data (RDA antimicrobial activity, single replicates)” value ([2]; peptide 5 μM) was 0. For the same compound, the “Mean (RDA antimicrobial activity)” value ([2]; peptide 5 μM) was 0.00, the “Data (RDA antimicrobial activity, single replicates)” value ([2]; peptide 10 μM) was 0.17 and 0.4 and 0.77 and the “Mean (RDA antimicrobial activity)” value ([2]; peptide 10 μM) was 0.45. For the same compound, the “Data (RDA antimicrobial activity, single replicates)” value ([2]; peptide 50 μM) was 1.06 and 1.6 and 1.24, the “Mean (RDA antimicrobial activity)” value ([2]; peptide 50 μM) was 1.30 and the “Data (RDA antimicrobial activity, single replicates)” value ([2]; peptide 100 μM) was 2.63 and 2.54 and 1.84. The “Mean (RDA antimicrobial activity)” value ([2]; peptide 100 μM) was 2.34, the “RDA Mean, C. albicans” value ([3]; peptide 0.1 μM) was 0.00 and the “RDA Data (single replicates), C. albicans” value (“RDA Data (single replicates)” for short) ([3]; peptide 0.1 μM) was 0.00. For the same compound, the “RDA Mean, C. albicans” value ([3]; peptide 0.5 μM) was 0.00, the “RDA Data (single replicates)” value ([3]; peptide 0.5 μM) was 0.00 and the “RDA Mean, C. albicans” value ([3]; peptide 1 μM) was 0.00. The “RDA Data (single replicates)” value ([3]; peptide 1 μM) was 0.00, the “RDA Mean, C. albicans” value ([3]; peptide 5 μM) was 0.00 and the “RDA Data (single replicates)” value ([3]; peptide 5 μM) was 0.00. The “RDA Mean, C. albicans” value ([3]; peptide 10 μM) was 0.46, the “RDA Data (single replicates)” value ([3]; peptide 10 μM) was 0.42 and 0.39 and 0.58 and the “RDA Mean, C. albicans” value ([3]; peptide 50 μM) was 4.04. For the same compound, the “RDA Data (single replicates)” value ([3]; peptide 50 μM) was 4.66 and 3.95 and 3.51, the “RDA Mean, C. albicans” value ([3]; peptide 100 μM) was 4.59 and the “RDA Data (single replicates)” value ([3]; peptide 100 μM) was 4.65 and 4.56 and 4.55.
For HKHGHLHLKHKNKGKKNGKH [Peptide 36], the “E.coli ATCC 25922 Mean, Ingrowth* counted” value [1] was 0.000, the “E.coli ATCC 25922 Mean, Ingrowth not counted” value [1] was 0.000 and the “S. aureus ATCC 29213 Mean” value [2] was 0.000. For the same compound, the “Candida albicans ATCC 90028 Mean” value [3] was 0.000.
`CC[C@H](C)[C@H](NC(=O)[C@H](CCCCN)NC(=O)[C@H](CCC(=O)O)NC(=O)[C@H](CCCCN)NC(=O)[C@H](CO)NC(=O)[C@H](CCCCN)NC(=O)[C@H](CCCNC(=N)N)NC(=O)[C@H](Cc1ccccc1)NC(=O)[C@H](Cc1ccccc1)NC(=O)[C@H](CC(=O)O)NC(=O)CNC(=O)[C@H](CC(C)C)NC(=O)[C@@H](N)CC(C)C)C(=O)NCC(=O)N[C@@H](CCCCN)C(=O)N[C@@H](CCC(=O)O)C(=O)N[C@@H](Cc1ccccc1)C(=O)N[C@@H](CCCCN)C(=O)N[C@@H](CCCNC(=N)N)C(=O)N[C@H](C(=O)N[C@H](C(=O)N[C@@H](CCC(N)=O)C(=O)N[C@@H](CCCNC(=N)N)C(=O)N[C@H](C(=O)N[C@@H](CCCCN)C(=O)N[C@@H](CC(=O)O)C(=O)N[C@@H](Cc1ccccc1)C(=O)N[C@@H](CC(C)C)C(=O)N[C@@H](CCCNC(=N)N)C(=O)N[C@@H](CC(N)=O)C(=O)N[C@@H](CC(C)C)C(=O)N[C@H](C(=O)N1CCC[C@H]1C(=O)N[C@@H](CCCNC(=N)N)C(=O)N[C@H](C(=O)N[C@@H](CCC(=O)O)C(=O)N[C@@H](CO)C(=O)O)[C@@H](C)O)C(C)C)[C@@H](C)CC)C(C)C)[C@@H](C)CC` [LL-37, reference compound] was tested, and the “E.coli ATCC 25922 Mean, Ingrowth* counted” value [1] was 6.53, the “E.coli ATCC 25922 Mean, Ingrowth not counted” value [1] was 0.653 and the “RDA values (mm) E. coli ATCC 25922” value [1, 4] was 7.55 mm. For the same compound, the “S. aureus ATCC 29213 Mean” value [2] was 4.660, the “RDA values (mm) S. aureus ATCC 29213” value [2, 4] was 3.23 mm and the “Candida albicans ATCC 90028 Mean” value [3] was 4.890. The “Hemolysis (%) Mean” value (erythrocytes) was 21.464%.
